From the supplement of paper PMC10949913 come the findings set out here.

One assay relates to CU-ACC1. The experiment in a line: ExcessHSA synergy score with TAK-243; higher = less synergy (negative = synergistic). The conditions noted are these: combined with: TAK-243 (MLN-7243) matrix, 9-point 1:2 dilution. As for the experimental part:
(§1)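 Each drug was tested at 9 points with 1:2 dilution; viability was read by CellTiter-Glo as in the single-agent screen. Synergy is scored as ExcessHSA (sum of excess over highest single agent; negative = synergy) and the Beta interaction parameter (<1 synergy).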

Another assay deals with NCI-H295R. The assay is described as above. The conditions noted are these: combined with: TAK-243 (MLN-7243) matrix, 9-point 1:2 dilution. As for the experimental part: as §1

Where a name gives a salt, the structure may show the parent alone.

As for `COc1c(OCCCN2CCOCC2)ccc2c3n(c(=NC(=O)c4cnc(N)nc4)nc12)CCN3` [Copanlisib], the “ExcessHSA synergy score with TAK-243” value in the assay on CU-ACC1 came to 70.4; with NCI-H295R it was 87.
For `Cc1[nH]c2ccc(F)cc2c1-c1nc2c3cccnc3c3ncccc3c2[nH]1` [APTO-253], the “ExcessHSA synergy score with TAK-243” value in the assay with CU-ACC1 was determined as 410; with NCI-H295R it was 586.
Regarding `CC(=O)N1CCC(Nc2cc(C(=O)NC[C@H](O)CN3CCc4ccccc4C3)ncn2)CC1`, the “ExcessHSA synergy score with TAK-243” value with CU-ACC1 is 517; with NCI-H295R it was 649.
As to `COc1ncnc(C2CC2)c1-c1ncc2cnn(Cc3ccc(-c4nc(C(F)(F)F)cn4C(C)C)cc3)c2n1` [KSQ-4279], the “ExcessHSA synergy score with TAK-243” value in the assay on CU-ACC1 is -545; with NCI-H295R, -796.
On the same counts, the results for `O=C(O)c1ccc(CN2CCC(CN[C@@H]3C[C@H]3c3ccccc3)CC2)cc1` are -27.5 and 23.7.
Take `CC(C)Nc1cc(-c2c[nH]c(C(=O)N[C@H](CO)c3cccc(Cl)c3)c2)c(Cl)cn1` [Ulixertinib]: the “ExcessHSA synergy score with TAK-243” value in the assay with CU-ACC1 was -564; in the assay with NCI-H295R, -674.
With `CC1(C)CCC(CN2CCN(c3ccc(C(=O)NS(=O)(=O)c4ccc(NCC5CCOCC5)c([N+](=O)[O-])c4)c(Oc4cnc5[nH]ccc5c4)c3)CC2)=C(c2ccc(Cl)cc2)C1` [Venetoclax (ABT-199)], the “ExcessHSA synergy score with TAK-243” value in the assay on CU-ACC1 was -249; in the assay with NCI-H295R, -424.
Take `C[C@@H]1C[C@H]2[C@@H]3CCC4=CC(=O)C=C[C@]4(C)[C@@]3(F)[C@@H](O)C[C@]2(C)[C@@]1(O)C(=O)CO` [Dexamethasone]: the “ExcessHSA synergy score with TAK-243” value with CU-ACC1 was found to be 420; in the assay with NCI-H295R it was 743.
On to `CC(C)n1c(=O)n(C)c2cnc3cc(F)c(-c4ccc(OCCCN5CCCCC5)nc4)cc3c21` [AZD-1390], for which the “ExcessHSA synergy score with TAK-243” value in the assay on CU-ACC1 came out at 697; in the assay on NCI-H295R, 286.
For the compound `CCOC(=O)[C@@H](N)CCC(=O)N[C@@H](CSCc1ccccc1)C(=O)N[C@@H](C(=O)OCC)c1ccccc1` [Ezatiostat], the “ExcessHSA synergy score with TAK-243” value with CU-ACC1 is -271; with NCI-H295R, -222.
Turning to `O=C(c1cc(Cc2n[nH]c(=O)c3ccccc23)ccc1F)N1CCN(C(=O)C2CC2)CC1` [Olaparib], the “ExcessHSA synergy score with TAK-243” value stood at 468 in the assay on CU-ACC1 and 859 in the assay on NCI-H295R.
For the compound `Nc1cccc2c1CN(C1CCC(=O)NC1=O)C2=O` (configuration not stated) [Lenalidomide], the “ExcessHSA synergy score with TAK-243” value in the assay with CU-ACC1 was 337; in the assay with NCI-H295R, 364.
On to `CN(C)C/C=C/C(=O)Nc1ccc(C(=O)Nc2cccc(Nc3ncc(Cl)c(-c4c[nH]c5ccccc45)n3)c2)cc1` [THZ1], for which the “ExcessHSA synergy score with TAK-243” value in the assay with CU-ACC1 is -55.8; with NCI-H295R, -128.
Regarding `CO[C@H]1C(=O)[C@]2(C)[C@@H](OC)C[C@H]3OC[C@@]3(OC(C)=O)[C@H]2[C@H](OC(=O)c2ccccc2)[C@]2(O)C[C@H](OC(=O)[C@H](O)[C@@H](NC(=O)OC(C)(C)C)c3ccccc3)C(C)=C1C2(C)C` [Cabazitaxel], the “ExcessHSA synergy score with TAK-243” value was 396 with CU-ACC1 and -364 with NCI-H295R.
On the same counts, the results for `Nc1nc(NC2CC2)cc(-c2cccc(Cl)c2Cl)n1` [TH588] are -251 and -172.
With `O=C(N[C@@H](Cc1coc2ccccc12)B(O)O)[C@@H]1C[C@H]2CC[C@@H]1O2` [LMP7-IN-1], the figures for the “ExcessHSA synergy score with TAK-243” value in the assay with CU-ACC1 and in the assay with NCI-H295R were -335 and -55.7, respectively.
On the same counts, the results for `CC1(C)CCC(c2ccc(Cl)cc2)=C(CN2CCN(c3ccc(C(=O)NS(=O)(=O)c4ccc(N[C@H](CCN5CCOCC5)CSc5ccccc5)c(S(=O)(=O)C(F)(F)F)c4)cc3)CC2)C1` [Navitoclax] are -563 and -505.
Turning to `Nc1ccn([C@@H]2O[C@H](CO)[C@@H](O)[C@@H]2O)c(=O)n1` [Cytarabine], the “ExcessHSA synergy score with TAK-243” value with CU-ACC1 was determined as 457; in the assay with NCI-H295R, 789.
With `CO/C1=C\C(C)=C\[C@@H](C)[C@@H](O)[C@@H](C)C/C(C)=C/C=C/[C@H](OC)[C@@H]([C@@H](C)[C@@H](O)[C@H](C)[C@@]2(O)C[C@@H](O)[C@H](C)[C@@H](C(C)C)O2)OC1=O` [Bafilomycin A1], the “ExcessHSA synergy score with TAK-243” value was 14.5 in the assay with CU-ACC1 and -139 in the assay with NCI-H295R.
With `CNC(=O)c1ccc(Nc2ncc(C(F)(F)F)c(NCc3nccnc3N(C)S(C)(=O)=O)n2)cc1` [Defactinib], the “ExcessHSA synergy score with TAK-243” value came out at 223 with CU-ACC1 and 245 in the assay with NCI-H295R.
The like results for `CCCCCCCCc1ccc(CCC(N)(CO)CO)cc1` [Fingolimod hydrochloride] were, in that order, -48.2 and 127.
With `O=C(Nc1ccnc(C(F)(F)F)c1)c1cnn(-c2cccc3c(=O)[nH]ccc23)c1C(F)(F)F`, the “ExcessHSA synergy score with TAK-243” value in the assay on CU-ACC1 is -300; in the assay with NCI-H295R, -544.
Turning to `O=C(CCCCCCNC(=O)c1cnc(N(c2ccccc2)c2ccccc2Cl)nc1)NO` [Citarinostat (ACY-241)], the “ExcessHSA synergy score with TAK-243” value with CU-ACC1 was -47.7; in the assay with NCI-H295R, -290.
Turning to `CC1(C)CCC2(CC1)N[C@@H](C(=O)N[C@@H]1CC[C@@H](C(N)=O)OC1)[C@H](c1ccnc(Cl)c1F)[C@]21C(=O)Nc2cc(Cl)ccc21` [Milademetan], the entries for the “ExcessHSA synergy score with TAK-243” value in the assay with CU-ACC1 and in the assay with NCI-H295R were -380 and -111, respectively.
In the case of `CNc1nc(NC2CCN(Cc3ccc4c(cc(C#N)n4C[C@H](C)N4CCN(S(C)(=O)=O)CC4)c3C)CC2)c2cc(CC(F)(F)F)sc2n1` [Ziftomenib (KO-539)], the “ExcessHSA synergy score with TAK-243” value in the assay with CU-ACC1 is -443; with NCI-H295R, -888.
`Cc1cc(F)c(C(=O)Nc2cccc(-c3nncn3C(C)C)n2)cc1-n1cnc(C2CC2)c1` [Selonsertib]: the “ExcessHSA synergy score with TAK-243” value in the assay on CU-ACC1 is 496; in the assay with NCI-H295R, 231.
Turning to `C=CCNC1=C2C[C@@H](C)C[C@H](OC)[C@H](O)[C@@H](C)/C=C(\C)[C@H](OC(N)=O)[C@@H](OC)/C=C\C=C(/C)C(=O)NC(=CC1=O)C2=O` [17-AAG], the “ExcessHSA synergy score with TAK-243” value with CU-ACC1 is 421; in the assay with NCI-H295R it was -251.
On to `NC(=O)/C(=C/n1cnc(-c2cc(C(F)(F)F)cc(C(F)(F)F)c2)n1)c1cncnc1` [Eltanexor], for which the “ExcessHSA synergy score with TAK-243” value was -817 in the assay on CU-ACC1 and -429 in the assay with NCI-H295R.
On to `O=C(C[C@@H](C(F)F)n1ccc(F)n1)N1CCC(O)(Cn2cnc3c(cnn3-c3ccc(F)cc3)c2=O)CC1` [FT671], for which the “ExcessHSA synergy score with TAK-243” value is -97.6 in the assay with CU-ACC1 and 431 in the assay on NCI-H295R.
Take `CC[C@@H]1C(=O)N(C)c2cnc(Nc3ccc(C(=O)N[C@H]4CC[C@H](N5CCN(CC6CC6)CC5)CC4)cc3OC)nc2N1C(C)C` [Volasertib]: the “ExcessHSA synergy score with TAK-243” value in the assay with CU-ACC1 is -422; in the assay on NCI-H295R, -938.
As for `Cc1ccc(NC(=O)NCc2ccc3c(c2)CN(C2CCC(=O)NC2=O)C3=O)cc1Cl` (configuration not stated) [CC-885], the “ExcessHSA synergy score with TAK-243” value came to 356 in the assay with CU-ACC1 and 370 in the assay with NCI-H295R.
